Values joined by “and” are separate entries in the source; they are usually repeats but may differ in a detail not shown here. Identical values can stand only once.
Tests used:
plasma [1] = test: Anticoagulant activity: thrombin time (TT), Sysmex CA-1500; format: biochemical, human; conditions: 20 μl sample + 80 μl plasma, number in label = g/dL
Procedure: (§1) Antithrombotic (anticoagulant) activity was evaluated according to a previously reported method. Each of thromborel S, actin and thrombin, which are reagents for Sysmex CA-1500 for analysis of PT, aPTT and TT, was mounted in Sysmex CA-1500 (Siemens Healthcare, Germany) which is an automated blood coagulation test device. According to the automated procedure of the test device, clotting time (sec) (prothrombin time (PT), activated partial thromboplastin time (aPTT) and thrombin time (TT)) was measured. A sufficient amount of a sample for each of the three analyses was about 400 uL of an 80:20 mixture of plasma and a test substance.
(§2) The isolated plasma was used in an experiment in a fresh state within 5-6 hours.
(§3) In this experiment, for the relative comparison of the measured clotting time (sec) (PT, aPTT and TT) between test groups, clotting time prolongation (%) relative to triple distilled water (purified water) that is a normal control test sample was statistically analyzed. For statistical analysis, the […] anticoagulant activities of test materials were comparatively analyzed using SPSS IBM version 21.0 by one-way ANOVA at p<0.05, and significance comparison between groups was performed by Duncan's test.
(§4) The aspirin solution was immediately used at room temperature in a light-shielded state or was cold-stored.
(§5) As a control, aspirin was used, and as a vehicle control, triple distilled water (purified water) was used instead of the sample.

plasma [2] = test: Anticoagulant activity: activated partial thromboplastin time (aPTT), Sysmex CA-1500; format: biochemical, human; conditions: 20 μl sample + 80 μl plasma, number in label = g/dL
Procedure: as §1, §2, §3, §4, §5

plasma [3] = test: Anticoagulant activity: prothrombin time (PT), Sysmex CA-1500; format: biochemical, human; conditions: 20 μl sample + 80 μl plasma, number in label = g/dL
Procedure: as §1, §2, §3, §4, §5

[4] = tested on: male mice (C57BL/6), high-fat diet; test: Glucose tolerance test (GTT) at 8 weeks of high-fat diet feeding; format: in vivo
Procedure: (§6) Using 8-week-old male mice (C57BL/6) (purchased from CoreTech), anti-diabetic candidate materials were evaluated using a GTT (Glucose Tolerance Test) that is a typical method for diagnosis of diabetes.
(§7) Mice were housed at a temperature of 22±2° C. and a relative humidity of 55-60% with 12-hr light/12-hr dark cycles. Five animals were allotted to each group, and mice from the same mother were grouped into one group, because male mice tend to fight together.
(§8) As feed, high-fat diet (60% of calories from fat; Research Diet Inc., New Brunswick, N.J.) and water were fed ad libitum for 10 weeks. Herein, the water fed contained the samples prepared in Examples 1-2 (3), 2-1, 2-4-1, 2-4-2 and 2-5. As a positive control, metformin (M-072, Sigma) (250 mg/kg) was used, and as a control, the samples prepared in Comparative Examples 1-1, 2-3-2, 2-5-1, 2-5-2 and 2-6 were used.
(§9) For reference, each of the samples prepared in Examples 2-4-1, 2-4-2 and 2-5 was set to the amount to be taken by an adult (60 kg) for 3 days, and the amount was converted into a mouse dose (12-fold/kg, see the US NIH guidance), thereby preparing animal feed. Namely, the amount to be taken by an adult (60 kg) for 3 days is 180-day dose/kg, which corresponds to 15-day dose/kg for mice. Thus, the amount corresponds to 750-day dose/mouse (20 g), because the average weight of mice is about 20 g. Thus, one mouse was allowed to take 1/750 of the prepared sample each day.
(§10) In addition, each of the samples prepared in Examples 1-2 (3) and 2-1 was set to the amount to be taken by an adult (60 kg) for 2 days, and the amount was converted into a mouse dose (12-fold/kg, see the US NIH guidance), thereby preparing animal feed. Namely, the amount to be taken by an adult (60 kg) for 2 days is 120-day dose/kg, which corresponds to 10-day dose/kg for mice. Thus, the amount corresponds to 500-day dose/mouse (20 g), because the average weight of mice is about 20 g. Thus, one mouse was allowed to take 1/500 of the prepared sample each day.
At 8 weeks of high-fat diet feeding, a glucose tolerance test (GTT) was performed. For 8 hours for the test, mice were fasted. Then, blood was sampled from the tail vein, and initial blood glucose levels were measured with a blood glucose meter (AUTO-CHEK, Diatech Korea). Then, glucose was administered intraperitoneally to the mice at a concentration of 1 g/kg, and after 30 min, 60 min, 90 min and 120 min, blood was sampled from the mice, followed by measurement of blood glucose levels (each group consisting of five animals).
(§11) Meanwhile, experimental analysis results were expressed as mean±S.E.M., and the significance between test groups was statistically processed using Student T-TEST, and then the significance was verified at *P<0.05.

[5] = Body weight and body weight gain of high-fat diet mice; format: in vivo, mice (C57BL/6); conditions: for Body weight / Body weight gain: high-fat diet mice, mean
Procedure: as §6, §7, §8, §9, §10
The diet intake and the body weight gain were measured weekly for 8 weeks. The body weight and the diet intake were measured immediately before first drug administration, and then measured at one-week intervals.
as §11

In the case of `O=C[C@@H](O)[C@H](O)[C@H](O)CO` [Ara, arabinose], the “TT clotting time prolongation relative to purified water, Mean” value (plasma [1]; Table 18, listed as Ara 5.2) is reported as 13.40% and the “TT clotting time prolongation relative to purified water, Mean” value (plasma [1]; Table 18, listed as Ara 7.8) is reported as 22.92%.
In the case of `CC(=O)Oc1ccccc1C(=O)O` [Asp 7.5 mg/ml, aspirin], the “aPTT clotting time prolongation relative to purified water, Mean” value (plasma [2]; Table 18) is reported as 7.31%, the “aPTT clotting time prolongation relative to purified water, Mean” value (plasma [2]; Table 19) is reported as 16.28% and the “aPTT clotting time prolongation relative to purified water, Mean” value (plasma [2]; Table 20) is reported as 29.82%. For the same compound, the “PT clotting time prolongation relative to purified water, Mean” value (plasma [3]; Table 18) was 9.90%, the “PT clotting time prolongation relative to purified water, Mean” value (plasma [3]; Table 19) was 17.51% and the “PT clotting time prolongation relative to purified water, Mean” value (plasma [3]; Table 20) was 26.02%. The “TT clotting time prolongation relative to purified water, Mean” value (plasma [1]; Table 18) was 13.59%, the “TT clotting time prolongation relative to purified water, Mean” value (plasma [1]; Table 19, values excluding one sample showing an extreme value) was 20.96% and the “TT clotting time prolongation relative to purified water, Mean” value (plasma [1]; Table 20) was 23.95%.
For `O=C(CO)[C@@H](O)[C@H](O)[C@H](O)CO` [Fruc, fructose], the “aPTT clotting time prolongation relative to purified water, Mean” value (plasma [2]; Table 20) was −0.20%, the “aPTT clotting time prolongation relative to purified water, Mean” value (plasma [2]; Table 20, listed as Fruc 12.4) was 0.58% and the “PT clotting time prolongation relative to purified water, Mean” value (plasma [3]; Table 20) was 0.54%. The “TT clotting time prolongation relative to purified water, Mean” value (plasma [1]; Table 20, listed as Fruc 6.2) was 13.19% and the “TT clotting time prolongation relative to purified water, Mean” value (plasma [1]; Table 20, listed as Fruc 12.4) was 30.07%.
With `O=C[C@H](O)[C@@H](O)[C@H](O)[C@H](O)CO` [Gluc, glucose] the “aPTT clotting time prolongation relative to purified water, Mean” value (plasma [2]; Table 19, listed as Gluc 6.2) was 2.22%, the “aPTT clotting time prolongation relative to purified water, Mean” value (plasma [2]; Table 19, listed as Gluc 12.4) was 2.89% and the “PT clotting time prolongation relative to purified water, Mean” value (plasma [3]; Table 19, listed as Gluc 6.2) was 1.69%. The “PT clotting time prolongation relative to purified water, Mean” value (plasma [3]; Table 19, listed as Gluc 12.4) was 2.26%, the “TT clotting time prolongation relative to purified water, Mean” value (plasma [1]; Table 19, values excluding one sample showing an extreme value, listed as Gluc 6.2) was 16.24% and the “TT clotting time prolongation relative to purified water, Mean” value (plasma [1]; Table 19, values excluding one sample showing an extreme value, listed as Gluc 12.4) was 27.82%.
With `O=C[C@@H](O)[C@@H](O)[C@H](O)[C@H](O)CO` [Mann, mannose] the “aPTT clotting time prolongation relative to purified water, Mean” value (plasma [2]; Table 20, listed as Mann 3.1) was 0.65%, the “aPTT clotting time prolongation relative to purified water, Mean” value (plasma [2]; Table 20, listed as Mann 6.2) was 1.24% and the “aPTT clotting time prolongation relative to purified water, Mean” value (plasma [2]; Table 20, listed as Mann 12.4) was 7.98%. For the same compound, the “PT clotting time prolongation relative to purified water, Mean” value (plasma [3]; Table 20, listed as Mann 3.1) was 2.71%, the “PT clotting time prolongation relative to purified water, Mean” value (plasma [3]; Table 20, listed as Mann 6.2) was 5.96% and the “PT clotting time prolongation relative to purified water, Mean” value (plasma [3]; Table 20, listed as Mann 12.4) was 13.55%. For the same compound, the “TT clotting time prolongation relative to purified water, Mean” value (plasma [1]; Table 20, listed as Mann 3.1) was 11.67%, the “TT clotting time prolongation relative to purified water, Mean” value (plasma [1]; Table 20, listed as Mann 6.2) was 22.74% and the “TT clotting time prolongation relative to purified water, Mean” value (plasma [1]; Table 20, listed as Mann 12.4) was 47.87%.
With `CN(C)C(=N)N=C(N)N` [Metformin, metformin] the “Glucose level, 0 min” value ([4]; GTT, high-fat diet mice, 0 min (fasting, before administration), mean) was 144.20 mg/dL, the “Glucose level, 30 min” value ([4]; GTT, high-fat diet mice, 30 min, mean) was 386.40 mg/dL and the “Glucose level, 60 min” value ([4]; GTT, high-fat diet mice, 60 min, mean) was 301.40 mg/dL. The “Glucose level, 90 min” value ([4]; GTT, high-fat diet mice, 90 min, mean) was 194.40 mg/dL, the “Glucose level, 120 min” value ([4]; GTT, high-fat diet mice, 120 min, mean) was 135.20 mg/dL and the “Body weight” value ([5]; 1 week) was 21.00 g. The “Body weight” value ([5]; 2 weeks) was 22.78 g and 26.344 g, the “Body weight gain” value ([5]; 2 weeks) was 3.48 g and the “Body weight” value ([5]; 3 weeks) was 23.84 g. For the same compound, the “Body weight gain” value ([5]; 3 weeks) was 4.54 g, the “Body weight” value ([5]; 4 weeks) was 25.18 g and the “Body weight gain” value ([5]; 4 weeks) was 5.88 g and 4.600 g. For the same compound, the “Body weight” value ([5]; 5 weeks) was 25.72 g, the “Body weight gain” value ([5]; 5 weeks) was 6.42 g and the “Body weight” value ([5]; 6 weeks) was 26.34 g. The “Body weight gain” value ([5]; 6 weeks) was 7.04 g, the “Body weight” value ([5]; 7 weeks) was 27.52 g and the “Body weight gain” value ([5]; 7 weeks) was 8.22 g. For the same compound, the “Body weight” value ([5]; 8 weeks) was 28.20 g, the “Body weight” value ([5]; Before admis.) was 19.30 g and the “Weight, Mean” value ([5]; HFD mice, sample in drinking water, 1 week) was 21.00 g. The “Weight, Mean” value ([5]; HFD mice, sample in drinking water, 6 weeks) was 26.34 g.
For `O=C[C@H](O)[C@H](O)[C@H](O)CO` [Rib, ribose], the “TT clotting time prolongation relative to purified water, Mean” value (plasma [1]; Table 19, values excluding one sample showing an extreme value, listed as Rib 5.2) was 23.15% and the “TT clotting time prolongation relative to purified water, Mean” value (plasma [1]; Table 19, values excluding one sample showing an extreme value, listed as Rib 10.4) was 52.50%.
For `NCCS(=O)(=O)O` [Tau, taurine], the fasting glucose level ([4]; 8 h fasted, 8 weeks of HFD, in words, comparator in the value) was “all lower than that of the mice administered with high-fat diet (HFD), and were similar to the blood glucose levels of normal mice”, the “glucose control ability in GTT” value ([4]; glucose 1 g/kg i.p., 8 weeks of HFD, in words, comparator in the value) was “significantly higher than that of the group administered with HFD alone” and the “Body weight gain, Mean” value ([5]; HFD mice, sample in drinking water, 8 weeks) was 9.52 g. The “body weight gain compared to the group administered with high-fat diet (HFD) alone” value ([5]; at 8 weeks after high-fat diet feeding, in words) was “significant reduction in body weight gain”.
With `O=C[C@H](O)[C@@H](O)[C@H](O)CO` [Xyl, xylose] the “TT clotting time prolongation relative to purified water, Mean” value (plasma [1]; Table 18, listed as Xyl 1.04) was 2.68%, the “TT clotting time prolongation relative to purified water, Mean” value (plasma [1]; Table 18, listed as Xyl 5.2) was 14.59% and the “TT clotting time prolongation relative to purified water, Mean” value (plasma [1]; Table 18, listed as Xyl 7.8) was 24.41%.
